Holding throughout (type): biochemical
One experiment addresses CDK4 (Homo sapiens (Human), UniProt P11802). The experiment can be described thus: In vitro kinase test (LANCE Ultra), CDK4. The text has this:
(§1) Recombinant CDK1/CCNB1 and CDK9/CCNT were purchased from BPS; CDK2/CCNA1, CDK4/CCND1 and CDK6/CCND1 were purchased from Invitrogen; CDK4/CycD3 and CDK6/CycD3 were purchased from Carna. Adenosine triphosphate (ATP) was purchased from Life tech. Substrate Ulight-4EBP1 and the corresponding detection antibody were purchased from Perkinelmer. The detection system was Perkinelmer's LANCE Ultra system.
(§2) In the kinase test, a compound to be tested was 1:3 diluted for 8 gradient points, added into a reaction plate, and then added an appropriate amount of recoinbinase. A buffer [50 mM HEPES […], 10 mM MgCl2, 3 mM MnCl2, 1 mM EGTA, 0.01% Tween-20, 1 mM TCEP] containing ATP/Ulight-4EBP1 premix with predetermined concentration was subsequently added, and the kinase reaction was started at room temperature. A test solution pre-mixed with 10 mM EDTA and detection antibody was added after a suitable reaction time, and then the fluorescence value was read on Tecan infinite pro after reacting for 1 hour at room temperature. The IC50 was calculated using a four-factor model fitting in a XLfit software.

The next experiment concerns the target CDK6 (Homo sapiens (Human), UniProt Q00534). The experiment is described as follows: In vitro kinase test (LANCE Ultra), CDK6.
Text: as §1, §2
Background: Time-resolved FRET reads energy transfer from a long-lived donor to a nearby acceptor.

The target of a further experiment is CDK1 (Homo sapiens (Human), UniProt P06493). The experiment is described as follows: In vitro kinase test (LANCE Ultra), CDK1.
CDK1, sequence (P06493 whole entry): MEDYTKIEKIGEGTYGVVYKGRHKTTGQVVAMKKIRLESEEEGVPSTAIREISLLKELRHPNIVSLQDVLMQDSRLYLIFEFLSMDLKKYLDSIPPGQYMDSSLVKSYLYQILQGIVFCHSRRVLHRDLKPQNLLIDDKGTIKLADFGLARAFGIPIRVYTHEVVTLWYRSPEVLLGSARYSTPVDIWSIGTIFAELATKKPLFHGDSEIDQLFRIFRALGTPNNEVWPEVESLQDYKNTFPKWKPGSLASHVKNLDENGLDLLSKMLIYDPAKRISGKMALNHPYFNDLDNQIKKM
CDK1, sequence (P14635 whole entry partner): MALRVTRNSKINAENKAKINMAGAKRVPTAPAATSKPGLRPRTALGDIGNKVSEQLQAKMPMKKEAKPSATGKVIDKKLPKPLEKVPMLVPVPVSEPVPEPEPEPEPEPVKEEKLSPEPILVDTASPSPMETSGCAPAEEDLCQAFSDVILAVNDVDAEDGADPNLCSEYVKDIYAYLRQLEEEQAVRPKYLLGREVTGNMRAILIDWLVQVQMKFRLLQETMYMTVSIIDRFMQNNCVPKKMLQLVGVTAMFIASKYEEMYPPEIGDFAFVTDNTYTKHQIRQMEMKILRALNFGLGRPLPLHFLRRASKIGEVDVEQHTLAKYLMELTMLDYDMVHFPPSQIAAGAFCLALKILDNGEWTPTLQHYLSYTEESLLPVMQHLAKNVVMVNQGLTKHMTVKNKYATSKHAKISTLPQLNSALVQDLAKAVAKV
Text: as §1, §2

In another experiment the target is CDK2 (Homo sapiens (Human), UniProt P24941). The experiment can be described thus: In vitro kinase test (LANCE Ultra), CDK2.
Text: as §1, §2

CDK4, sequence (P11802 whole entry, looked up): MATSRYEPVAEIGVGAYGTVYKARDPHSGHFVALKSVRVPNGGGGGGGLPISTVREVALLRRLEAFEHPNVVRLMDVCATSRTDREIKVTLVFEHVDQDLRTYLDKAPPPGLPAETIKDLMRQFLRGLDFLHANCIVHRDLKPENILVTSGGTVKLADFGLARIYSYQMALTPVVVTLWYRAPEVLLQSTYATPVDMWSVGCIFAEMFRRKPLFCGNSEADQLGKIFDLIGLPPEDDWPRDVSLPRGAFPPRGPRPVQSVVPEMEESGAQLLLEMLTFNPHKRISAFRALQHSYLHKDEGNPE
CDK4, sequence (P24385 whole entry partner, looked up): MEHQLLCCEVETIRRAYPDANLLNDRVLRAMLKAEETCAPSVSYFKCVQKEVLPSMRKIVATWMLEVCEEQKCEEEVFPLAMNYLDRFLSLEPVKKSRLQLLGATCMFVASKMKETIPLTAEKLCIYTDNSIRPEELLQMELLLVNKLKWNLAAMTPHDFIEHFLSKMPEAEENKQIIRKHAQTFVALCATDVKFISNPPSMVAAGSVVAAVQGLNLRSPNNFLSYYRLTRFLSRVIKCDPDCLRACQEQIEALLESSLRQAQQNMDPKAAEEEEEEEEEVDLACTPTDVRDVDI
CDK6, sequence (Q00534 whole entry, looked up): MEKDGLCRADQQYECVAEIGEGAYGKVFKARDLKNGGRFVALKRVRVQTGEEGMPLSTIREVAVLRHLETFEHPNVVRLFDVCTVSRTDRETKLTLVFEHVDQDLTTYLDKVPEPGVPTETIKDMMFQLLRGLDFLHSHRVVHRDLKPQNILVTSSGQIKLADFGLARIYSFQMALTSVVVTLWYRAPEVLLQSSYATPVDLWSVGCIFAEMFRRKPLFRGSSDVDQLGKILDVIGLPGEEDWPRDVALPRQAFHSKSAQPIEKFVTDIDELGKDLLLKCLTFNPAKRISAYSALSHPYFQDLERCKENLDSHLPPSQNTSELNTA
CDK6, sequence (P24385 whole entry partner, looked up): as the sequence (P24385 whole entry partner, looked up) above

Usually IC50 stands for the concentration needed to halve the response being measured. Lower therefore signals higher potency. For the molecule `c1cc(Nc2ncc3c(n2)-c2nn(C4CCCC4)cc2CC3)ncc1N1CCNCC1` [Compound P-36], the 50% inhibitory concentration (IC50) is 0.138 µM at CDK4 and 0.714 µM against CDK6.
Consider `CC(C)n1ncc2c1-c1nc(Nc3ccc(N4CCNCC4)cn3)ncc1CC2(C)C` [Compound P-51], for which the IC50 at CDK4 stood at 0.042 µM; against CDK6, 0.117 µM.
On to `Cc1nc2c(n1C(C)C)-c1nc(Nc3ccc(N4CCNCC4)cn3)ncc1CC2` [Compound P-24, 1-isopropyl-2-methyl-N-(5-(piperazin-1-yl)pyridin-2-yl)-4,5-dihydro-1H-imidazo[4,5-H]quinazolin-8-amine], for which the IC50 on CDK4 was found to be 0.003 µM; against CDK6, 0.011 µM; on CDK1 it was 3.57 µM; against CDK2, 0.816 µM.
For `COCc1nn(C(C)C)c2c1CCc1cnc(Nc3ccc(N4CCNCC4)cn3)nc1-2` [Compound P-59, 1-isopropyl-3-(methoxymethyl)-N-(5-(piperazin-1-yl)pyridin-2-yl)-4,5-dihydro-1H-pyrazolo[4,3-H]quinazolin-8-amine], the IC50 was 0.021 µM against CDK4, 0.083 µM on CDK6, above 10 µM against CDK1 and above 10 µM at CDK2.
Regarding `CC(C)c1c2c(nn1C)C1(CC1)c1cnc(Nc3ccc(N4CCNCC4)cn3)nc1-2` [Compound P-57], the concentration for half-maximal inhibition (IC50) on CDK4 came out at 0.003 µM; against CDK6 it was 0.058 µM; on CDK1, 0.942 µM; at CDK2, 0.803 µM.
The matching figures for `CCc1nc2c(n1C(C)C)-c1nc(Nc3ccc(N4CCNCC4)cn3)ncc1CC2` [Compound P-23, 2-ethyl-1-isopropyl-N-(5-(piperazin-1-yl)pyridin-2-yl)-4,5-dihydro-1H-imidazo[4,5-H]quinazolin-8-amine]: 0.006 µM, 0.085 µM, 2.78 µM and 1.3 µM.
Consider `CC(C)n1ncc2c1-c1nc(Nc3ccc(N4CCNCC4)cn3)ncc1CC2` [Compound P-25, 1-isopropyl-N-(5-(piperazin-1-yl)pyridin-2-yl)-4,5-dihydro-1H-pyrazolo[4,3H]quinazolin-8-amine], for which the results for the IC50 against CDK4, against CDK6 and against CDK1 were 0.009 µM, 0.031 µM and above 10 µM, respectively.
Take `CCN1CCN(Cc2ccc(Nc3ncc4c(n3)-c3c(cnn3C(C)C)CC4)nc2)CC1` [Compound P-10]: the IC50 turned out to be 0.016 µM against CDK4 and 0.132 µM against CDK6.
As for `CCc1nc2c(n1C(C)C)-c1nc(Nc3ccc(CN4CCN(CC)CC4)cn3)ncc1C2` [Compound P-5], the values for the IC50 against CDK4, against CDK6 and at CDK1 were 0.022 µM, 0.256 µM and 5.31 µM, respectively.
With `CCn1nc2c(c1C(C)C)-c1nc(Nc3ccc(N4CCNCC4)cn3)ncc1CC2(C)C` [Compound P-46], the half-inhibitory concentration (IC50) was found to be 0.008 µM against CDK4, 0.035 µM at CDK6, 0.818 µM on CDK1 and 0.469 µM against CDK2.
With `CC(C)c1[nH]nc2c1-c1nc(Nc3ccc(N4CCNCC4)cn3)ncc1CC2` [Compound P-29, 9-isopropyl-N-(5-(piperazin-1-yl)pyridin-2-yl)-6,8-dihydro-5H-pyrazolo[3,4-H]quinazolin-2-amine], the half-maximal inhibitory concentration (IC50) against CDK4 was 0.007 µM; at CDK6, 0.017 µM; at CDK1 it was above 1 µM; against CDK2, 0.457 µM.
For the molecule `CCN1CCN(Cc2ccc(Nc3ncc4c(n3)-c3c(nc(C)n3C(C)C)CC4)nc2)CC1` [Compound P-41], the IC50 on CDK4 was 0.005 µM; against CDK6, 0.044 µM.
Consider `Cc1c2c(nn1C)CCc1cnc(Nc3ccc(N4CCN(C)CC4)cc3)nc1-2` [Compound D1, reference compound], for which the “inhibitory activity against CDK4 (in words)” value on CDK4 is listed as “strong inhibitory activity”. Moreover, the “inhibitory activity against CDK6 (in words)” value against CDK6 is listed as “strong inhibitory activity”. Also, on CDK1, the “inhibitory activity against CDK1 (in words)” value was “strong inhibitory activity”. Moreover, the “inhibitory activity against CDK2 (in words)” value on CDK2 is recorded as “strong inhibitory activity”.
Consider `Cc1c2c(nn1C)CCc1cnc(Nc3ccc(N4CCN(C)CC4)cn3)nc1-2` [Compound P-66], for which the IC50 at CDK4 worked out at 0.023 µM; on CDK6 it was 0.063 µM; against CDK1, 0.926 µM; against CDK2 it was 0.674 µM.
For the molecule `CC(C)c1c2c(nn1C(F)F)Cc1cnc(Nc3ccc(N4CCNCC4)cn3)nc1-2` [Compound P-27], the half-inhibitory concentration (IC50) was 0.006 µM on CDK4 and 0.008 µM on CDK6.
For the molecule `CCc1nc2c(n1CC)-c1nc(Nc3ccc(N4CCNCC4)cn3)ncc1C2` [Compound P-21], the half-inhibitory concentration (IC50) at CDK4 was determined as 0.035 µM; against CDK6, 0.706 µM; against CDK1, 6.37 µM; at CDK2 it was 5.05 µM.
Turning to `CC(C)c1c2c(nn1C)C(C)(C(C)O)Cc1cnc(Nc3ccc(N4CCNCC4)cn3)nc1-2` (centres unmarked) [Compound P-60, 1-(9-isopropyl-6,8-dimethyl-2-(5-(piperazin-1-yl)pyridin-2-ylamino)-6,8-dihydro-5H-pyrazolo[3,4-H]quinazolin-6-yl)ethanol], the IC50 against CDK4 turned out to be 0.16 µM; against CDK6 it was 0.762 µM.
On to `Cc1nc2c(n1C1CCCC1)-c1nc(Nc3ccc(N4CCNCC4)cn3)ncc1C2` [Compound P-13], for which the concentration for half-maximal inhibition (IC50) came out at 0.023 µM at CDK4, 0.043 µM at CDK6, 5.65 µM against CDK1 and 8.31 µM on CDK2.
The matching figures for `CCn1nc2c(c1C(C)C)-c1nc(Nc3ccc(N4CCNCC4)cn3)ncc1CC2` [Compound P-4, 8-ethyl-9-isopropyl-N-(5-(piperazin-1-yl)pyridin-2-yl)-6,8-dihydro-5H-pyrazolo[3,4-H]quinazolin-2-amine]: 0.005 µM, 0.033 µM, 7.96 µM and 4.76 µM.
For `CCN1CCN(c2ccc(Nc3ncc4c(n3)-c3c(nn(C)c3C(C)C)C4)nc2)CC1` [Compound P-7], in that order: 0.006 µM, 0.042 µM, 8.53 µM and 9.85 µM.
`Cc1nc2sc3cnc(Nc4ccc(N5CCNCC5)cn4)nc3c2n1C(C)C` [Compound P-65]: the IC50 was 1.07 µM at CDK4 and above 3 µM at CDK6.
For `CC(=O)C1(C)Cc2cnc(Nc3ccc(N4CCNCC4)cn3)nc2-c2c1nn(C)c2C(C)C` (centres unmarked) [Compound P-55], in that order: 0.128 µM and 0.523 µM.
For the molecule `CCn1nc2c(c1C(C)C)-c1nc(Nc3ccc(N4CCNCC4)cn3)ncc1OC2` [Compound P-49], the figures for the IC50 against CDK4 and against CDK6 were 0.007 µM and 0.07 µM, respectively.
As to `CC(C)c1c2c(nn1C)CC1(CC1)c1cnc(Nc3ccc(N4CCNCC4)cn3)nc1-2` [Compound P-56], the IC50 at CDK4 amounted to 0.103 µM; on CDK6, 0.831 µM.
On to `CCc1nc2c(n1C(C)C)-c1nc(Nc3ccc(N4CCNCC4)cn3)ncc1C2` [Compound P-22], for which the half-maximal inhibitory concentration (IC50) against CDK4 worked out at 0.02 µM; against CDK6, 0.043 µM.
For `CC(=O)C1(C)Cc2cnc(Nc3ccc(N4CCNCC4)cn3)nc2-c2c1ncn2C(C)C` (centres unmarked) [Compound P-63], in that order: 0.056 µM and 0.16 µM.
For `CC(C)c1c2c(nn1C)CC(C)(C)c1cnc(Nc3ccc(N4CCNCC4)cn3)nc1-2` [Compound P-44], in that order: 0.173 µM and 0.415 µM.
The matching figures for `Cc1nc2c(n1CC1CC1)-c1nc(Nc3ccc(N4CCNCC4)cn3)ncc1C2` [Compound P-28]: 0.041 µM and 0.121 µM.
Consider `CCn1nc2c(c1C(C)C)-c1nc(Nc3ccc(N4CCNCC4)cn3)ncc1C(C)(C)C2` [Compound P-48], for which the concentration for half-maximal inhibition (IC50) at CDK4 was 0.097 µM; against CDK6 it was 0.897 µM.
The matching figures for `CCN1CCN(Cc2ccc(Nc3ncc4c(n3)-c3c(nn(CC)c3C(C)C)C4)nc2)CC1` [Compound P-45]: 0.037 µM and 0.451 µM.
The matching figures for `Cc1nn(C2CCCC2)c2c1CCc1cnc(Nc3ccc(N4CCNCC4)cn3)nc1-2` [Compound P-43]: 0.009 µM and 0.046 µM.
As for `c1cc(Nc2ncc3c(n2)-c2c(cnn2C2CCCCC2)CC3)ncc1N1CCNCC1` [Compound P-35], the concentration for half-maximal inhibition (IC50) against CDK4 was 0.074 µM; against CDK6 it was 0.252 µM.
In the case of `CCN1CCN(Cc2ccc(Nc3ncc4c(n3)-c3c(nn(CC)c3C(C)C)CC4)nc2)CC1` [Compound P-2], the figures for the IC50 at CDK4, against CDK6 and against CDK1 were 0.004 µM, 0.038 µM and 0.427 µM, respectively.
For `CCN1CCN(c2ccc(Nc3ncc4c(n3)-c3c(cnn3C(C)C)CC4)nc2)CC1` [Compound P-12], in that order: 0.008 µM, 0.036 µM and above 10 µM.
Consider `CCN1CCN(Cc2ccc(Nc3ncc4c(n3)-c3c(nn(CC)c3C(C)C)C(C)(C)C4)nc2)CC1` [Compound P-50], for which the results for the IC50 at CDK4 and on CDK6 were 0.006 µM and 0.04 µM, respectively.
The matching figures for `c1cc(Nc2ncc3c(n2)-c2c(cnn2C2CCOC2)CC3)ncc1N1CCNCC1` (centres unmarked) [Compound P-37]: 0.041 µM and 0.362 µM.
`CC(C)n1nc(C#N)c2c1-c1nc(Nc3ccc(N4CCNCC4)cn3)ncc1CC2` [Compound P-52, 1-isopropyl-8-(5-(piperazin-1-yl)pyridin-2-ylamino)-4,5-dihydro-1H-pyrazolo[4,3-H]quinazolin-3-carbonitrile]: the concentration for half-maximal inhibition (IC50) is 0.006 µM against CDK4 and 0.033 µM against CDK6.
For `Cc1nc2c(n1C1CC1)-c1nc(Nc3ccc(N4CCNCC4)cn3)ncc1C2` [Compound P-11], in that order: 0.043 µM and 0.165 µM.

The values above are taken from US11168088B2 (SHANGHAI HAIYAN PHARMACEUTICAL TECHNOLOGY CO., LTD., priority 2016, dated 2021).
